Results on 38 compounds are retold here after ChEMBL document CHEMBL6134767, “Advances in antibacterial agents for Mycobacterium fortuitum” (2025).

Assay type in all cases: functional
Test [1] has as its system Mycolicibacterium fortuitum. Briefly: Antibacterial activity against Mycobacterium fortuitum.
Test [2] relates to Mycolicibacterium fortuitum. Nature of the test: Antimycobacterial activity against Mycobacterium fortuitum ATCC 35931 assessed as reduction in bacterial growth.
The subject of test [3] is Mycolicibacterium fortuitum. Nature of the test: Antimycobacterial activity against Mycobacterium fortuitum ATCC 6841.
Test [4] has as its system Mycolicibacterium fortuitum. Briefly: Antibacterial activity against Mycobacterium fortuitum ATCC 6841 assessed as reduction in bacterial growth incubated for 72 hrs by Mueller-Hinton broth micro-dilution based assay.
Test [5] has as its system Mycolicibacterium fortuitum. Nature of the test: Antimycobacterial activity against Mycobacterium fortuitum NCTC 10394 assessed as reduction in microbial growth incubated for 72 hrs by resazurin dye based broth microdilution method. For orientation: The colour change of resazurin is a common sign of viable cells or microbes.
Test [6] relates to Mycolicibacterium fortuitum. Briefly: Antimycobacterial activity against Mycobacterium fortuitum ATCC 6841 assessed as reduction in microbial growth incubated for 72 hrs by resazurin dye based broth microdilution method.

In brackets after ≈: the same amount, converted by molar mass. Counter-ions that a name gives are not always drawn.

In general, MIC refers to the least concentration at which growth counts as inhibited. `CCOC(=O)/C=C/C(=O)c1ccc(C(C)(C)C)cc1`: the MIC in test [1] came out at 15.4 µM (≈ 4 µg/mL).

`Fc1ccc(C(c2ccc(OCCN3CCCCC3)cc2)c2cccs2)cc1` (stereo not drawn): the MIC in test [2] was found to be 7.9 µM (≈ 3.12 µg/mL).

Regarding `COc1cc(/C=C/C2=NN(C(=N)N)C(c3cc(OC)c(OC)c(OC)c3)C2)cc(OC)c1OC` (stereo not drawn), in test [1], 5.31 µM (≈ 2.5 µg/mL) was the least that counted as inhibitory (MIC).

The compound `CC(=O)O[C@@H]1[C@@H](O)[C@@H](O)[C@H](OC[C@]2(C)[C@@H](O)C[C@H](O)[C@]3(C)[C@H]4CC=C5[C@@H]6C[C@](C)(C(=O)O)CC[C@]6(C)CC[C@@]5(C)[C@]4(C)CC[C@@H]23)O[C@H]1C` registered an MIC in test [1] of 29.3 µM (≈ 19.8 µg/mL).

On to `COc1cc(OC)c2c(ccc3cc(O)c(O)cc32)c1`, for which the MIC in test [2] turned out to be 92.5 µM (≈ 25 µg/mL).

The compound `COc1ccc(/C=C/C2=NN(C(=N)N)C(c3ccc(OC)cc3)C2)cc1` (stereo not drawn) returned a minimum inhibitory concentration (MIC) in test [1] of 0.44 µM (≈ 0.154 µg/mL).

As to `C/C=C/c1cc(OC)c2c(c1)[C@@H](C)[C@H](c1ccc(O)c(OC)c1)O2` [LICARINE A], in test [3], 0.12 µM (≈ 0.0392 µg/mL) was the least that counted as inhibitory (MIC).

As for `CC(C)N(CCOc1ccc(C(c2ccc(F)cc2)c2cccs2)cc1)C(C)C` (stereo not drawn), the minimal inhibitory concentration (MIC) in test [2] was determined as 15.2 µM (≈ 6.26 µg/mL).

For `C=C[C@H](O)C#CC#CC/C=C\CCCCCCC` [FALCARINOL], the minimal inhibitory concentration (MIC) in test [4] came out at 16.4 µM (≈ 4 µg/mL).

As to `C[C@@H]([C@H](NC(=O)[C@H](Cc1ccc2ccccc2c1)NC(=O)N[C@@H](Cc1c[nH]c2ccccc12)C(=O)NCC(C)(C)C)C(=O)NC[C@H]1C[C@@H](O)[C@H](n2ccc(=O)[nH]c2=O)O1)N(C)C(=O)CN`, the MIC in test [5] is 1 µM.

Regarding `O=S(=O)(O)c1ccc(-c2c3nc(c(-c4ccc(S(=O)(=O)O)cc4)c4ccc([nH]4)c(-c4ccc(S(=O)(=O)O)cc4)c4nc(c(-c5ccc(S(=O)(=O)O)cc5)c5ccc2[nH]5)C=C4)C=C3)cc1`, the minimum inhibitory concentration (MIC) in test [2] was found to be 100 µM (≈ 93.5 µg/mL).

As to `CC(C)CCn1cc(NC(=O)c2ccc3[nH]c(C(=O)Nc4cc(C(=O)Nc5ccc(C(=O)NCCN6CCN(C)CC6)n5C)n(CCC(C)C)c4)cc3c2)cc1C(=O)Nc1cc(C(=O)NCCN2CCN(C)CC2)n(C)c1`, the MIC in test [5] came out at 9.5 µM.

Regarding `Clc1ccc(C(c2ccc(OCCN3CCCCC3)cc2)c2cccs2)cc1` (stereo not drawn), the MIC in test [2] came out at 3.79 µM (≈ 1.56 µg/mL).

On to `CCCCCCCCCCCCCCCC(=O)O` [PALMITIC ACID], for which the MIC in test [4] is 2 µM (≈ 0.513 µg/mL).

`C[C@@H](N)CCCCCC/C=C\CCCCCCCCN`: in test [4], the MIC was 44 µM (≈ 12.4 µg/mL).

In the case of `CC(=O)OCC1=CCc2c(cc(O)c3c(=O)cc(C)oc23)OC1`, the MIC in test [2] came out at 25.3 µM (≈ 8 µg/mL).

As for `CC(C)CCn1cc(NC(=O)c2ccc3[nH]c(C(=O)Nc4cc(C(=O)Nc5ccc(C(=O)NCCN(C)C)n5C)n(CCC(C)C)c4)cc3c2)cc1C(=O)Nc1cc(C(=O)NCCN(C)C)n(C)c1`, in test [5], the MIC was determined as 5.2 µM.

The compound `Cc1c(Cc2ccc(N3CCNCC3)cc2C(F)(F)F)cc(-c2ccc(Cl)cc2)n1-c1ccc(Cl)cc1` showed a minimum inhibitory concentration (MIC) in test [1] of 7.35 µM (≈ 4 µg/mL).

Consider `O=c1ccc2nccc3c4cccc(O)c4n1c23`, for which the MIC in test [5] was found to be 67.7 µM.

Consider `C1=C2CCCC/C=C\C=C\CCN3CC[C@@H]4[C@H](CCCCCC/C=C\C=C/CCN(C2)C[C@H]14)C3` [HALICYCLAMINE A], for which the minimum inhibitory concentration (MIC) in test [5] came out at 54 µM.

In test [3], `O=c1nc(N2CCN(CC3CCCCC3)CC2)sc2c([N+](=O)[O-])cc(C(F)(F)F)cc12` [MACOZINONE] gave an MIC of 0.022 µM (≈ 0.01 µg/mL).

Turning to `c1ccc2c(c1)[I+]c1ccccc1-2` [DIPHENYLENEIODONIUM CHLORIDE], in test [3], the minimum inhibitory concentration (MIC) came out at 0.4 µM.

`COc1ncc(-c2ccc(Cl)cc2)cc1[C@@H](c1ccccc1)[C@@](O)(CCN(C)C)c1cccc2ccccc12` [SUDAPYRIDINE]: the MIC in test [6] was 15 µM.

On to `C[n+]1c2ccccc2cc2[n-]c3ccccc3c21` [CRYPTOLEPINE HYDROCHLORIDE], for which, in test [5], the MIC came to 59.5 µM.

With `Fc1ccc(C(c2ccc(OCCN3CCCC3)cc2)c2cccs2)cc1` (stereo not drawn), in test [2], the MIC was found to be 8.2 µM (≈ 3.13 µg/mL).

Turning to `COc1cc(Cc2cc(-c3ccc(Cl)cc3)n(-c3ccc(Cl)cc3)c2C)ccc1N1CCNCC1`, it took 15.8 µM (≈ 8.02 µg/mL) to inhibit growth in test [1] (MIC).

On to `CN(C)c1ncnc(SC(=S)N2CCCC2)c1[N+](=O)[O-]`, for which the minimal inhibitory concentration (MIC) in test [3] stood at 4.98 µM (≈ 1.56 µg/mL).

In test [1], `C[C@@H](OC(=O)c1cc([N+](=O)[O-])cc([N+](=O)[O-])c1)c1ccccc1` yielded an MIC of 4.94 µM (≈ 1.56 µg/mL).

Take `CCN(CC)CCOc1ccc(C(c2ccc(F)cc2)c2cccs2)cc1` (stereo not drawn): the MIC in test [2] stood at 16.3 µM (≈ 6.25 µg/mL).

The compound `CC1(C)[C@@H](O)C[C@H](O)[C@]2(C)[C@H]3CC=C4[C@@H]5C[C@](C)(C(=O)O)CC[C@]5(C)CC[C@@]4(C)[C@]3(C)CC[C@@H]12` displayed a minimal inhibitory concentration (MIC) in test [1] of 3.2 µM (≈ 1.51 µg/mL).

For the compound `Fc1ccc(C(c2ccc(OCCN3CCCCCC3)cc2)c2cccs2)cc1` (stereo not drawn), the minimal inhibitory concentration (MIC) in test [2] amounted to 3.81 µM (≈ 1.56 µg/mL).

`COc1ccccc1/C=C/C1=NN(C(=N)N)C(c2ccccc2OC)C1` (stereo not drawn) registered an MIC in test [1] of 0.89 µM (≈ 0.312 µg/mL).

`N#Cc1cc([N+](=O)[O-])cnc1SC(=S)N1CCCC1`: the MIC in test [3] turned out to be 5.3 µM (≈ 1.56 µg/mL).

The compound `Cc1cc(O)c2c(c1)C(=O)C=CC2=O` [RAMENTACEONE] came in with a minimum inhibitory concentration (MIC) in test [3] of 0.12 µM (≈ 0.0226 µg/mL).

Take `C[C@@H]([C@H](NC(=O)[C@H](CC1CCCCC1)NC(=O)N[C@@H](Cc1c[nH]c2ccccc12)C(=O)NCC(C)(C)C)C(=O)NC[C@H]1C[C@@H](O)[C@H](n2ccc(=O)[nH]c2=O)O1)N(C)C(=O)CN`: the minimal inhibitory concentration (MIC) in test [5] was determined as 1 µM.

In test [1], `CCOC(=O)/C=C\C(=O)c1ccc(C(C)(C)C)cc1` gave an MIC of 30.7 µM (≈ 8 µg/mL).

The compound `C[C@H](NC(=O)c1cc([N+](=O)[O-])cc([N+](=O)[O-])c1)c1ccccc1` had an MIC in test [1] of 39.7 µM (≈ 12.5 µg/mL).

As for `CC(=O)c1ccc2c3c4c(c(O)cc(C)c4c(O)c2c1O)C(=O)c1c(O)cc(C)cc1-3`, the MIC in test [2] came to 0.12 µM (≈ 0.0497 µg/mL).
